# Molecular target: T1, human TLR7 (hTLR7) (Homo sapiens, UniProt Q9NYK1)
# T1 construct: host or cells: HEK-293 (HEK-Blue hTLR7)
# T1 sequence (Q9NYK1 27-1049): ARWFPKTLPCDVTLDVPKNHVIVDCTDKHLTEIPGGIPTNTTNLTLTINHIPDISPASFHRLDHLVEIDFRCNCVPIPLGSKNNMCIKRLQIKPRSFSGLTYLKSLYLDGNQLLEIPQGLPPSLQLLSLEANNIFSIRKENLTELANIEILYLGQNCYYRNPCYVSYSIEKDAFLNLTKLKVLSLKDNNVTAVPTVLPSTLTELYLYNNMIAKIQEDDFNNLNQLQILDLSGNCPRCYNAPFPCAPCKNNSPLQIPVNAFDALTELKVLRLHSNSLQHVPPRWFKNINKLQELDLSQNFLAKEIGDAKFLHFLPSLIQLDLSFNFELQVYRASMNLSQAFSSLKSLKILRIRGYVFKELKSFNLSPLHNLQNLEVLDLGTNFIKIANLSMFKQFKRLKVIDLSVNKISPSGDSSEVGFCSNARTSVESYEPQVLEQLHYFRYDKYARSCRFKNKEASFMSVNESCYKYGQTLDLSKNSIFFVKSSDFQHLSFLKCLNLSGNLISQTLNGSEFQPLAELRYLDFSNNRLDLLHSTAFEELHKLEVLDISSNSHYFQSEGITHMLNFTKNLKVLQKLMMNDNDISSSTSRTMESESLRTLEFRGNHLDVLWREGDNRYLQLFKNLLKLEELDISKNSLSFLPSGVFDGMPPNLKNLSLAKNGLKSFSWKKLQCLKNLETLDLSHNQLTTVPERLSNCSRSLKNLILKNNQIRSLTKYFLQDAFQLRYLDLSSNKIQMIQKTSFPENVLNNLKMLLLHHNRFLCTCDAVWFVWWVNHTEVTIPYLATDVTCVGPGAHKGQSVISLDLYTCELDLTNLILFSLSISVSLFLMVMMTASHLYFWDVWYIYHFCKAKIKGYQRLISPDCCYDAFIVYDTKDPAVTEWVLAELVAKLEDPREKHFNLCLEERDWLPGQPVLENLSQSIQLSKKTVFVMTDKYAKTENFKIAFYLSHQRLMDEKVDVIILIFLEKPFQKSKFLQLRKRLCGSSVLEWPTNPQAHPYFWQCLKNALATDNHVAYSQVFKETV
# Test: In vitro TLR7 activity assay (HEK-Blue hTLR7, QUANTI-Blue, Example 3)
# Type: cell-based
# Conditions: 16 h incubation; Null 1-k subtracted
# Description: TLR agonist activity was measured in a dose-response study using reporter cell lines expressing the human TLR7 (hTLR7). […] The hTLR7 activity of R848-Toco, the formulation and its components were assessed using HEK-293 cells co-transfected with the hTLR7 gene and an inducible SEAP reporter gene along with the corresponding null control line (HEK-Blue™ hTLR7 and Null-1k cells, Invivogen). Cells were maintained in DMEM media with selective antibiotics according to the manufacturer protocol.^26 HEK-Blue™ cells were seeded into 96 well plates at a density of 220,000 cells/mL with 180 μL/well of culture medium. Stock solutions in DMSO were first serially diluted to seven concentrations (DMSO solutions further diluted into H2O). Each well was stimulated with 20 μL of agonists or agonist-free controls (equivalent concentration of HA-Toco, D-α-Tocopherol succinate, PBS or […] DMSO) at the determined final concentrations in 5 replicates. After 16 h of incubation at 37° C. in a 5% CO2 atmosphere, 20 μL of the supernatant from each well was sampled and spiked into 180 μL of QUANTI-Blue™ solution followed by incubation for 1 h at 37° C. Relative hTLR7 activity was then analyzed by UV-Vis at 637 nm using a microplate UV reader (SpectraMAX GeminiXS, Molecular Devices, San Jose, CA, USA). For each compound and concentration, a corresponding sample was applied to the HEK-Blue™ Null-1k cell line. The TLR7 agonist activity was determined after averaging across hTLR7 replications and subtracting the averaged Null response.
# Activation levels were calculated as the difference between the average readings of the hTLR7 cell line and the Null 1-k cell line, to account for non-hTLR7 related induction of NF-κB. […] Therefore, this study confirmed that R848-Toco, formulated with HA-Toco as an emulsion, maintained its TLR agonist activity. […]
compound,measurement,value
"CCOCc1nc2c(N)nc3ccccc3c2n1CC(C)(C)O [Compound 2, resiquimod, reference compound]","hTLR7 activation (NF-κB, in words)",strong dose-dependent activation
